# Test: Reaction with N-acetylcysteamine (model for skin-bound sulfhydryl groups) in the presence of base, followed by 1H NMR
# Conditions: for time after which the reaction was complete by NMR: 1 equivalent N-acetylcysteamine per crotonyl moiety, CDCl3
# From the text: As a model for skin-bound sulfhydryl groups (—SH) of cysteine residues in skin proteins, the compound N-acetylcysteamine was allowed to react with OSM in the presence of a catalytic amount of the base 1,5-diazabicyclo[4.3.0]non-5-ene (DBN) in chloroform solution.
# As a model for skin-bound sulfhydryl groups (—SH) of cysteine residues in skin proteins, the compound N-acetylcysteamine was allowed to react with OCM in the presence of a catalytic amount of the base 1,5-diazabicyclo[4.3.0]non-5-ene (DBN) in chloroform solution.
# As a model for skin bound sulfhydryl groups (—SH) of cysteine residues in skin proteins, the compound N-acetylcysteamine was allowed to react with DCPEG in the presence of a catalytic amount of the base 1,5-diazabicyclo[4.3.0]non-5-ene (DBN) in chloroform solution.
# A solution of octadecyl S-sorbyl-3 -mercaptopropionate (10.9 mg, 0.024 mmol) in 0.3 mL of CDCl3 was added to a solution of N-acetylcysteamine (5.2 μL, 0.048 mmol) and DBN (3.1 μL, 0.025 mmol) in 0.3 mL of CDCl3. The mixture was immediately transferred to an NMR tube and the first spectrum was recorded at time=0. The reaction solution was allowed to stand at room temperature in the NMR tube for two days, and the course of the reaction was monitored by periodically recording the ^1H NMR spectrum. A total often ^1H NMR experiments were performed at time=0, 0.25, 0.5, 1, 1.5, 4.5, 12, 20.5, 26, and 39 hours.
# The time course of the reaction of OSM with 2 equiv of N-acetylcysteamine in the presence of 1 equiv of DBN in 0.6 mL of CDCl3 was studied by recording ^1H NMR spectra at various times for 39 hours. The signals of the olefinic protons due to the sorbate group of OSM (δ 6.2-6.0 and δ 7.2) and that of the newly formed C═C bond of the monoadducts (δ 5.6-5.2) were monitored in particular. In the course of these experiments, it was observed that the signals at δ 6.2-6.0 and δ 7.2 disappeared, while those at δ 5.6-5.2 appeared over the first 1.5 hours of the reaction, which indicated the formation of the monoadducts. The olefinic protons signals of the monoadducts started to fade away gradually after 1.5 hours and became very weak by approximately 39 hours. These spectra may imply the formation of the diadduct.
# The reaction of OCM with N-acetylcysteamine was carried out at room temperature as follows: 22.0 mg of OCM was dissolved in 0.6 mL of CDCl3 and 5.7 μL of N-acetylcysteamine (1 equivalent) was added. […] Then a catalytic amount (0.1 equiv) of the base DBN was added, and the NMR spectrum was recorded immediately and again after 5 minutes. By 5 minutes, more than 60% of the OCM had reacted as judged by the diminished integration of the resonances at 6.9 ppm and 6.1 ppm due to the vinyl protons of the crotonyl moiety of OCM. […] A COSY spectrum confirmed that the expected product, shown earlier herein, had been formed. Nucleophilic attack by the sulfur atom of N-acetylcysteamine, presumably as the thiolate anion, at the β-position of the unsaturated thiol ester generated the expected covalent adduct. […]
# The reaction of DCPEG with N-acetylcysteamine was followed by NMR: 35.6 mg of DCPEG was dissolved in 0.7 mL CDCl3 and the spectrum was recorded before and after addition of N-acetylcysteamine (1 equivalent per crotonyl moiety). […]
# [1] = 2 equiv N-acetylcysteamine, 1 equiv DBN, CDCl3, room temperature
Compound,time after which the reaction was complete by NMR (0.1 equiv DBN),"OCM reacted, judged by diminished integration of the vinyl proton resonances (1 equivalent N-acetylcysteamine, 0.1 equiv DBN, CDCl3, room temperature, by 5 minutes)",time by which the monoadduct olefinic proton signals became very weak (may imply diadduct formation) [1],time over which sorbate olefinic signals disappeared and monoadduct signals appeared [1]
"C/C=C/C(=O)SCCC(=O)OCCCCCCCCCCCCCCCCCC [OCM, octadecyl S-crotonyl-3-mercaptopropionate]",27 min,more than 60%,–,–
"C/C=C/C=C/C(=O)SCCC(=O)OCCCCCCCCCCCCCCCCCC [OSM, octadecyl S-sorbyl-3-mercaptopropionate]",–,–,approximately 39 hours,≤ 1.5 h
"S,S′-dicrotonyl-α-thio-ω-mercapto[poly(ethylene glycol)] [DCPEG]",5 min,–,–,–

# Reference: patent publication US20020006421A1, “Long-acting, chemical-resistant skin emollients, moisturizers, and strengtheners” (priority 1997, published 2002)
